# Data published in US20070293434A9, “Binding polypeptides and methods based thereon” (priority 2000, published 2007).
# Biological target: BLyS (Homo sapiens, UniProt Q9Y275)
# Assay: Fluorescence anisotropy determination of BLyS-ligand dissociation constants
# Type: binding
# Experimental: Dissociation constants between the synthetic peptides and BLyS (free in solution) were measured by fluorescence anisotropy (FA). In these experiments, the concentration of the fluorescein-labeled peptide is held constant and the BLyS protein concentration was varied. […] Binding reactions containing 50 nM fluorescein-labeled peptide and a varied concentration of BLyS in a volume between 10 and 20 μL per well were performed in 384 well microplates. Reactions were assayed using a Tecan Polarion fluorescence polarization plate reader. Cross-competition studies between peptides were performed using 50 nM fluorescein-labeled peptide and 1-2 μM BLyS in the presence and absence of 100 μM unlabeled peptide. […] Other buffers in which dissociation constants of BLyS Binding polypeptides were […] include: […] […] The KD of several BLyS binding BAML peptides was determined by fluorescence anisotropy, performed as previously described.
improvement in binding affinity for BLyS as compared to 453-01-B07 (compared to 453-01-B07 (SEQ ID NO:31)),decrease in affinity compared to DX814 (compared to DX814),Substance
more than 10 fold,–,Ac-ANWYDSLTKLWLPDGGK-fitc [DX822]
–,approximately 10 fold,Ac-ANWYDPLTKLSLPDGGK-fitc [DX818]
